Results from patent EP2698385A1, “Detection of synthetic cannabinoids” (priority 2012, dated 2014).

Experiments:
[1] = test system: Antibody to Immunogen VIII; type: binding, sheep; settings: Cross-reactants at 100 ng/ml; Antibody to Immunogen VIII
[2] = test system: Antibody to Immunogen IV; type: binding, sheep; settings: Cross-reactants at 100 ng/ml; Antibody to Immunogen IV
[3] = test system: Antibody to Immunogen VII; type: binding, sheep; settings: Cross-reactants at 100 ng/ml; Antibody to Immunogen VII
[4] = test system: antibodies raised to Immunogens I & II; test: Competitive ELISA (Example 19), sensitivity and cross-reactivity of selected molecules, one result for both antibodies; type: binding, sheep; settings: for % CR / IC50: first Table 3, Standard Conc 750.00 ng/ml; for binding / cross-reaction with antibodies raised from Immunogens I and II: result in words
Procedure: (§1) Aqueous solutions of the immunogens prepared in examples 5 and 13 were formulated with Freund's Complete Adjuvant (FCA) to form emulsions consisting of 2mg/ml Immunogen I and 2mg/ml of Immunogen II in 50%(v/v) FCA. Three sheep were immunised with each emulsion (1° immunisations), 0.25ml being intramuscularly injected at four sites in the rump of each animal. Subsequent immunisations (boosts 2-8) contained 1mg/ml Immunogen I and 1mg/ml Immunogen II. All boosts were emulsified in 50%(v/v) Freund's Incomplete Adjuvant (FIA) and administered to the appropriate sheep in the same manner as the 1° immunisations, at monthly intervals. Blood sampling took place 7-14 days after each boost. Each sample was processed to produce antiserum, which was further purified by caprylic acid and ammonium sulphate precipitation to yield an immunoglobulin (Ig) fraction. The Ig fraction was evaluated by competitive ELISA microtiter plate assay, as described in example 19 below.
(§2) Example 19: Development of competitive ELISA for JWH synthetic cannabinoids and metabolites. • (a) The wells of an enhanced binding 96 well polystyrene microtiter plate were coated with the Ig fraction of the antiserum raised to Immunogen I (Hapten A-BTG - example 5) and diluted in 10mM Tris, pH8.5 (125µl/well). The appropriate antibody coating concentration was determined using standard ELISA checkerboard techniques. The plate was incubated for 2 hours at 37°C, washed 4 times over a 10-minute period with Tris buffered saline containing Tween 20 (TBST) and tapped dry. Standard solutions of JWH synthetic cannabinoids, metabolites and selected molecules were prepared in TBST and 50µl of each was added to the appropriate wells. 75µl of conjugate (Hapten A-HRP) diluted in Tris buffer containing EDTA, D-mannitol, sucrose, thimerosal and BSA, was added to each of the wells. The appropriate dilution of conjugate was also determined using standard ELISA checkerboard techniques. The plate was incubated at 25°C for 1 hour. The excess unbound conjugate was removed by washing 6 times over a 10-minute period with TBST and tapped dry. 125µl of tetramethylbenzedine (TMB) substrate solution was added to each well of the plate that was then incubated for 15-20 minutes in the dark at room temperature. The reaction was terminated by addition of 125µl of 0.2M sulphuric acid to each well. The absorbance was then measured at 450nm using a microtiter plate reader. Employing each series of standards, calibration curves were generated and these were used to determine the specificity of the immunoassay for the JWH synthetic cannabinoids, metabolites and selected molecules. The results of this study are presented in Tables 1 to 3, cross-reactivity being calculated according to the following formula: %CR = […] /IC50,CR X 100 [formula] Where %CR is the percentage cross-reactivity, IC50, YWH-018 is the concentration of JWH-018 that causes 50% displacement of signal and IC50, CR is the concentration of JWH synthetic cannabinoid/metabolite/selected molecule that causes 50% displacement of signal.
Table 2: Data generated from a competitive microtiter plate assay for JWH synthetic cannabinoids and metabolites, employing antiserum raised to Immunogen I (Hapten A-BTG) and conjugate (Hapten A-HRP) as detection reagent. • (c) The resulting competitive ELISA for synthetic cannabinoids and metabolites was further employed to analyse urine and serum samples from 20 patients (Table 3). • (d) The resulting competitive ELISA for synthetic cannabinoids and metabolites was also employed to test for the 5-fluoropentyl derivative of JWH-018, (1-(5-fluoropentyl)indol-3yl (1-naphthyl) methanone (Table 4).

[5] = test system: antiserum raised to Immunogen I (Hapten A-BTG); test: Competitive ELISA microtiter plate assay (Example 19), antiserum raised to Immunogen I, Hapten A-HRP conjugate as detection reagent; type: binding, sheep; settings: first Table 4, Immunogen I
Procedure: as §1, §2
Table 1: Data generated from a competitive microtiter plate assay for JWH synthetic cannabinoids and metabolites, employing antiserum raised to Immunogen II (Hapten B-BTG) and conjugate (Hapten A-HRP) as detection reagent. (b) In a similar manner to that described in Example 19(a), the wells of a 96 well microtiter plate were coated with the Ig fraction of the antiserum raised to Immunogen II ([…]). Conjugate (Hapten A-HRP) was employed as a detection reagent. […]

[6] = target: CB1 receptor (Homo sapiens, UniProt P21554); settings: result in words; detailed in US6900236; cited from earlier work
CB1 receptor, sequence (P21554 whole entry): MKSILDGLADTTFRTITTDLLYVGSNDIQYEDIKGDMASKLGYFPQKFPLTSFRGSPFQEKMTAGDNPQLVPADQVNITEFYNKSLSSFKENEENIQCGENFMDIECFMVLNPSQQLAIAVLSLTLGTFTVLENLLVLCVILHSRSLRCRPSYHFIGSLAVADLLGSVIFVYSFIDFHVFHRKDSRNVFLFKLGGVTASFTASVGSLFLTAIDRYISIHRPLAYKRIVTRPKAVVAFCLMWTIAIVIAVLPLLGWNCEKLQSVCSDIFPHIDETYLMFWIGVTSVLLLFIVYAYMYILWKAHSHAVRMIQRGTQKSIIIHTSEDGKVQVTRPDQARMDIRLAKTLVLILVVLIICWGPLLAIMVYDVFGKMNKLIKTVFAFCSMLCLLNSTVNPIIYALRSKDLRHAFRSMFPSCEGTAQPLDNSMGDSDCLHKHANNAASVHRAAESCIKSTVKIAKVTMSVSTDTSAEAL

[7] = test system: antiserum raised to Immunogen II (Hapten B-BTG); test: Competitive ELISA microtiter plate assay (Example 19), antiserum raised to Immunogen II, Hapten A-HRP conjugate as detection reagent; type: binding, sheep; settings: first Table 4, Immunogen II
Procedure: as §1, §2
Table 1: Data generated from a competitive microtiter plate assay for JWH synthetic cannabinoids and metabolites, employing antiserum raised to Immunogen II (Hapten B-BTG) and conjugate (Hapten A-HRP) as detection reagent. (b) In a similar manner to that described in Example 19(a), the wells of a 96 well microtiter plate were coated with the Ig fraction of the antiserum raised to Immunogen II ([…]). Conjugate (Hapten A-HRP) was employed as a detection reagent.

[8] = test system: Antibody to Immunogen I; type: binding, sheep; settings: Cross-reactants at 100 ng/ml; Antibody to Immunogen I
Procedure, shortened: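 Sheep anti-Immunogen I IgG coated on plates, then JWH-018 standards (0–40 ng/ml) competed with hapten-HRP conjugate for 1 h at 25°C. TMB read-out at 450 nm, 4-parameter fit. IC50 is the standard concentration giving 50% B/B0; cross-reactivity of related cannabinoids taken from the calibration curves.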

O=C(O)c1c[nH]c2ccccc12 [Indole-3-carboxylic Acid]
%B/B0 [1]: 96.28%
%B/B0 [2]: 93.42%
%B/B0 [3]: 96.90%
% CR [4]: < 0.28%
IC50 [4]: > 750.00 ng/mL
binding / cross-reaction with antibodies raised from Immunogens I and II [4]: do not cross-react

O=C(O)Cc1c[nH]c2ccc(O)cc12 [5-hydroxyindole-3-acetic acid (5-HIAA), 5-hydroxyindole-3-acetic acid]
%B/B0 [1]: 108.24%
%B/B0 [2]: 96.61%
%B/B0 [3]: 99.46%
% CR [4]: < 0.28%
IC50 [4]: > 750.00 ng/mL

NCCc1c[nH]c2ccc(O)cc12 [Serotonin]
% CR [4]: < 0.28%
IC50 [4]: > 750.00 ng/mL

CCCCCc1cc(O)c2c(c1)OC(C)(C)[C@@H]1CCC(C)=C[C@@H]21 [Delta 9 THC]
%B/B0 [1]: 96.10%
%B/B0 [2]: 93.62%
%B/B0 [3]: 96.76%
% CR [4]: < 0.28%
IC50 [4]: > 750.00 ng/mL

CCCCCc1cc(O)c2c(c1)OC(C)(C)[C@@H]1CCC(CO)=C[C@@H]21 [11-Hydroxy-δ-9-THC]
% CR [4]: < 0.28%
IC50 [4]: > 750.00 ng/mL

COc1cccc2[nH]cc(CCN(C)C)c12 [4-Methoxypsilocin]
% CR [4]: < 0.28%
IC50 [4]: > 750.00 ng/mL

O=C(c1cccc2ccccc12)c1cn(CCCCCF)c2ccccc12 [5-Fluoropentyl derivative, 1-(5-Fluoropentyl)indol-3-yl (1-naphthyl) methanone]
IC50 [5]: 0.02 ng/mL
% Cross-reactivity ([5]; JWH-018 = 100): 11500.00%
binding / cross-reaction with antibodies raised from Immunogens I and II [4]: binds
binding to the CB1 receptor [6]: known to bind
IC50 [7]: 0.22 ng/mL
% Cross-reactivity ([7]; JWH-018 = 100): 908.00%

CCCCCc1cc(O)c2c(c1)OC(C)(C)c1ccc(C)cc1-2 [Cannabinol]
%B/B0 [1]: 94.03%
%B/B0 [2]: 94.74%
%B/B0 [3]: 95.43%
% CR [4]: < 0.28%
IC50 [4]: > 750.00 ng/mL

CCCCCn1cc(C(=O)O)c2ccccc21 [3-Carboxy-N-pentyl-1H -indole, 3-carboxy-1-pentyl-1H-indole]
% CR [4]: < 0.28%
IC50 [4]: > 750.00 ng/mL

CCCCCCC(C)(C)c1ccc([C@H]2CCC[C@@H](O)C2)c(O)c1 (racemic) [CP-49,497-C7 ((+-) CP 47,497), CP 47,497]
%B/B0 [8]: 101.20%
%B/B0 [1]: 86.95%
%B/B0 [2]: 96.84%
%B/B0 [3]: 94.23%
% CR [4]: < 0.28%
IC50 [4]: > 750.00 ng/mL

OCCc1c[nH]c2ccc(O)cc12 [5-hydroxytryptophol]
%B/B0 [1]: 102.93%
%B/B0 [2]: 94.51%
%B/B0 [3]: 98.45%
% CR [4]: < 0.28%
IC50 [4]: > 750.00 ng/mL

CCn1cc(C(=O)c2cccc3ccccc23)c2ccccc21 [JWH-071]
binding / cross-reaction with antibodies raised from Immunogens I and II [4]: bind
